Laboratory results: PubChem BioAssay AID179 (DTP/NCI, 2004)
Activity calls are given as the source filed them.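 Rule for the calls: active = compounds giving half or more protection of infected cells from virus-caused growth loss, again on retest; inactive = the rest.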 Where a SMILES comes first, the peptide text is derived from it. The star is where a group is joined. Fmoc = O=C(OCC1c2ccccc2-c2ccccc21)*; OBn = c1ccc(CO*)cc1; tBu = CC(C)(C)*

Test system: CEM cells HIV-1 protection, formazan growth assay
Experiment: NCI AIDS Antiviral Assay
Settings: for IC50: measured here: growth of uninfected CEM cells
Procedure, shortened: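 Protection of CEM cells against HIV-1 measured as cell growth via soluble formazan read-out, with five concentrations tested on both infected and uninfected cells; failure to protect may reflect toxicity.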

SMILES: C=CCNC(=O)NCCCCC(NC(C)=O)C(=O)NCc1ccccc1 (stereo not drawn)
- EC50: > 692 µM
- IC50: > 692 µM

SMILES: CC(=O)O/N=C(Cl)/C(Cl)=N/OC(C)=O
- outcome: inactive

SMILES: O=[N+]([O-])c1ccc(-c2nnc(C34CC5CC(CC(C5)C3)C4)o2)cc1
- EC50: > 200 µM
- IC50: > 200 µM

SMILES: O=C(NCc1ccccc1)c1c(O)c2ccccc2[nH]c1=O
- EC50: > 200 µM
- IC50: > 200 µM

SMILES: C=C=C[P+](c1ccccc1)(c1ccccc1)c1ccccc1
- EC50: > 155 µM
- IC50: 3.24 µM

SMILES: O=C(Cn1c(=O)cc(Nc2ccccc2)c2ccccc21)Nc1ccccc1
- EC50: > 200 µM
- IC50: 89.1 µM

SMILES: CCOC(=O)N1Cc2ccoc2C1
- EC50: > 75.9 µM
- IC50: > 75.9 µM

SMILES: O=C1CCC2(c3ccccc3)Nc3cc([N+](=O)[O-])ccc3N12 (stereo not drawn)
- EC50: > 24.5 µM
- IC50: > 24.5 µM

SMILES: CSC(=S)Nc1cc(C)cc(C)n1
- EC50: > 200 µM
- IC50: > 200 µM

SMILES: Nc1ncnc2c1ccn2C/C=C/CO
- EC50: > 200 µM
- IC50: > 200 µM

SMILES: CCSC1=CC(Cc2ccc(OC)cc2)N(C(=O)OC)C1 (stereo not drawn)
- EC50: > 85.1 µM
- IC50: 60.3 µM

SMILES: Cc1[nH]nc2c1NC(=O)OC2
- EC50: > 1170 µM
- IC50: > 1170 µM

SMILES: COc1cc2c(cc1OC)C(=O)N1CCCC1CS2 (stereo not drawn)
- EC50: > 200 µM
- IC50: > 200 µM

SMILES: C=C(C)C(C(=O)OC(c1ccccc1)c1ccccc1)N1C(=O)C(NC(=O)COc2ccccc2)C1SSc1nc2ccccc2s1 (stereo not drawn)
- EC50: > 200 µM
- IC50: 8.32 µM

SMILES: COC(=O)C1C2CC3C(OC(=O)C31)C2OC(=O)[C@](OC)(c1ccccc1)C(F)(F)F (stereo partly drawn)
- EC50: > 83.2 µM
- IC50: > 83.2 µM

SMILES: O=C1N(Cl)C2C(N1Cl)N(Cl)C(=O)N2Cl (stereo not drawn)
- EC50: > 200 µM
- IC50: > 200 µM

SMILES: COc1ccc(N=NN2CCCC2)cc1
- EC50: > 200 µM
- IC50: 15.5 µM

SMILES: CCNCCCCNCCCCNCCCCNCCCCNCC
- EC50: > 2190 µM
- IC50: 12.3 µM

SMILES: N#CCCn1[nH]c(=O)c(Cl)c(Cl)c1=O
- EC50: > 1070 µM
- IC50: 5.62 µM

SMILES: O=C1CSC(Cc2nc3ccccc3[nH]2)=N1
- EC50: > 30.9 µM
- IC50: > 30.9 µM

SMILES: Cc1cc(NC(=O)C(=O)Cc2nc3ccccc3s2)ccc1Cl
- EC50: > 20.9 µM
- IC50: > 20.9 µM

SMILES: Cc1cccc(NC(=S)Nc2ccccc2Cl)n1
- EC50: 141 µM
- IC50: > 200 µM

SMILES: COc1ccc2c(c1)OC[C@@H]1c3cc(O)c4c(OCc5ccccc5)cccc4c3O[C@H]21
- EC50: > 100 µM
- IC50: 67.6 µM

SMILES: O=C1CCCC(C(Sc2ccccc2)(Sc2ccccc2)Sc2ccccc2)C1 (stereo not drawn)
- EC50: > 200 µM
- IC50: 12 µM

SMILES: C=C1CN(S(=O)(=O)c2ccc(C)cc2)CCCCN(Cc2ccccc2)CCCN(S(=O)(=O)c2ccc(C)cc2)C1
- EC50: > 200 µM
- IC50: 6.92 µM

SMILES: CC(=O)OC[C@]1(O)CC[C@@]23CC1C[C@@H]2CCC1C(C)(C)CCC[C@@]13C (stereo partly drawn)
- EC50: > 20.9 µM
- IC50: > 20.9 µM

SMILES: Cc1cc(C)c2c(c1)CN1CN2Cc2cc(C)cc(C)c21
- outcome: inactive

SMILES: O=c1nc2n(cc1F)C1OC(CCl)C(O)C1O2 (stereo not drawn)
- EC50: > 200 µM
- IC50: > 200 µM

SMILES: CN1C(=O)C(O)(C2=C3OCOC3=CC(=O)C2=O)c2ccccc21 (stereo not drawn)
- EC50: > 200 µM
- IC50: 32.4 µM

SMILES: CC(NC(=O)C(NC(=O)CNC(=O)OC(C)(C)C)C(C)C)C(=O)Oc1c(Cl)c(Cl)c(Cl)c(Cl)c1Cl (stereo not drawn)
- EC50: > 200 µM
- IC50: 29.5 µM

SMILES: C/C(CC(O)(/C=N/O)c1ccccc1)=N/O (stereo not drawn)
- EC50: > 200 µM
- IC50: > 200 µM

SMILES: CNC1C(O)C(OC2C(N)CC(N)C(OC3OC(CN)=CCC3N)C2O)OCC1(C)O (stereo not drawn)
- outcome: inactive

SMILES: COC(=O)CC[C@@H](C)C1CCC2(C)c3ccc4c(c3C(=O)C[C@]12C)CC[C@H](OC(C)=O)C4(C)C (stereo partly drawn)
- EC50: > 100 µM
- IC50: > 100 µM

SMILES: CCC(=O)NCC1(c2c[nH]c3ccccc23)SCCS1
- outcome: inactive

SMILES: CCOC(=O)C(=O)Nc1c(CC)cccc1C(C)C
- EC50: > 355 µM
- IC50: > 355 µM

SMILES: Cc1c(CCC(C)C)oc2cc3oc(CCC(C)C)c(C)c3cc12
- EC50: > 70.8 µM
- IC50: > 70.8 µM

SMILES: O=C(CC1(O)C(=O)Nc2ccc(Br)cc21)c1ccc(Cl)cc1Cl (stereo not drawn)
- EC50: > 162 µM
- IC50: 95.5 µM

SMILES: CC(OC(C)(C)C)C(NC(=O)OCC1c2ccccc2-c2ccccc21)C(=O)NC(Cc1ccccc1)C(=O)OCc1ccccc1 (stereo not drawn) (Fmoc-Thr(tBu)-Phe-OBn; configuration not given here)
- EC50: > 200 µM
- IC50: > 200 µM

SMILES: O=[N+]([O-])C(C(Cl)=C(Cl)Cl)=C(N(Cc1ccccc1)Cc1ccccc1)N(Cc1ccccc1)Cc1ccccc1
- EC50: > 0.2 µM
- IC50: > 0.2 µM

SMILES: Cc1ccc(NC(=O)C(=O)C2NC(=S)NC2=O)c([N+](=O)[O-])c1 (stereo not drawn)
- EC50: > 295 µM
- IC50: 129 µM

SMILES: Nc1ccc2ncc(Nc3ccc(F)cc3)nc2c1
- EC50: > 269 µM
- IC50: 135 µM

SMILES: O=C(O)Cn1ccc(=O)c2c([N+](=O)[O-])cccc21
- EC50: > 200 µM
- IC50: > 200 µM

SMILES: O=C(O)[C@H](Cc1ccccc1)NCCN1CCC[C@H]1C(=O)O
- EC50: > 200 µM
- IC50: > 200 µM

SMILES: C/C=C/[C@@H]1[C@H]2C(=O)[C@]3(Cl)[C@@H](/C=C/C)[C@@H]3C(=O)[C@@]12Cl
- outcome: inactive
